From US20210353648A1, “GRAPIPRANT UNIT DOSAGE FORMS” (Arrys Therapeutics, Inc., priority 2018, published 2021)

How the values were obtained:
Type in all cases: in vivo, BALB/c mice
[1] = tested on: 4T1 mouse breast cancer model; assay: Anti-tumor activity in the 4T1 breast cancer mouse model, alone and with anti-CTLA4
Experimental: The antitumor activity of Compound B (as described in example 9 above) as a single agent and combined with a mouse anti-CTLA4 antibody was evaluated in the 4T1 mouse breast cancer model grown in BALB/c mice. Mice were inoculated subcutaneously in the right flank with 3×10^5 tumor cells. When tumors reached an average size of 100 mm^3 (7 days after tumor cell inoculation) dosing was initiated.

CT-26 tumors = assay: Immune cell composition of CT-26 tumors by flow cytometry; details: after 7 days dosing; Compound B 15 mg/kg BID, anti-PD-1 10 mg/kg Q3D; versus vehicle
Experimental: The immune cell composition of Compound B (as described in example 9 above) as a single agent and combined with a mouse anti-PD1 antibody was evaluated in the CT-26 mouse colon adenocarcinoma model grown in BALB/c mice. Mice were inoculated subcutaneously in the right flank with 5×10^5 tumor cells. When tumors reached an average size of 85 mm^3 dosing was initiated. The dosing regimens in the 4 separate cohorts comprising 10 mice each are listed as follows:
After dosing animals for 7 days, tumors were resected and used to prepare single cell suspensions. Live cells representing tumor and immune cells were stained with cocktails of antibodies targeting multiple immune cell markers (anti-CD45, anti-CD3, anti-CD4, anti-CD8, anti-CD25, anti-FoxP3, anti-PD-1, anti-CD11c) conjugated to different fluorescent tags. The stained cells were fixed in 4% paraformaldehyde and quantified using a multi-color flow cytometer (Fortessa). The data was analyzed with FloJo software.

[2] = tested on: 4T1 mouse breast cancer model; assay: Anti-tumor activity in the 4T1 model, additional experiment with anti-PD1; details: Compound B 15 mg/kg BID single agent, n=7/group
Experimental: (§1) The antitumor activity of Compound B as a single agent and combined with a mouse anti-PD1 antibody was evaluated in the 4T1 mouse breast cancer model grown in BALB/c mice in an additional experiment. Mice were inoculated subcutaneously in the right flank with 3×10^5 tumor cells. When tumors reached an average size of 97 mm^3 dosing was initiated. The dosing regimens in the 4 separate cohorts comprising 7 mice each are as follows: […]

[3] = tested on: CT-26 mouse colon adenocarcinoma model; assay: Anti-tumor activity in the CT-26 model, additional experiment with anti-PD1; details: single agents (Compound B 15 mg/kg BID; anti-PD1 10 mg/kg BIW) versus vehicle, n=7/group
Experimental: as §1, with “CT-26” for “4T1”, “colon adenocarcinoma” for “breast cancer”, “5×10^5” for “3×10^5”, “91” for “97”

[4] = tested on: CT-26 mouse colon adenocarcinoma model; assay: Anti-tumor activity in the CT-26 colon adenocarcinoma mouse model, alone and with anti-PD-1
Experimental: The antitumor activity of Compound B as a single agent and combined with a mouse anti-PD-1 antibody was evaluated in the CT-26 mouse colon adenocarcinoma model grown in BALB/c mice. Mice were inoculated subcutaneously in the right flank with 5×10^5 tumor cells. When tumors reached an average size of 71 mm^3 (6 days after tumor cell inoculation) dosing was initiated. The dosing regimens in the 8 separate cohorts comprising 10 mice each are as follows: […]

## C[C@H](NC(=O)c1cc(Cl)cnc1Oc1cccc(F)c1)c1ccc(C(=O)O)cc1 [Compound B]
[1]; 47 days after tumor inoculation
  mice still alive: none
[1]; single agents (Compound B 15 mg/kg BID; anti-CTLA4) versus vehicle, n=10/group
  tumor growth kinetics during the period of dosing: decreased relative to the vehicle treated mice
CT-26 tumors
  percentage of activated T cells (CD45, CD3, CD8; CD25 expression): did not
  percentage of dendritic cells (CD45, CD11c positive): increased percentage
  regulatory T cells (CD45, CD4, FoxP3, CD25 positive): significant decrease
[2]
  tumor growth kinetics during the period of dosing: less than that of the vehicle group and anti-PD1 when dosed alone
[3]
  tumor growth kinetics during the period of dosing: less than that of the vehicle group
[4]; 15 mg/kg QD and BID p.o., single agent, versus vehicle, n=10/group
  tumor growth kinetics during the period of dosing: not notably different from the vehicle treated mice
[4]; 99 days after tumor inoculation
  mice still alive: 1 out of 10 mice
[4]; 99 days after tumor inoculation, 10 mice per group
  tumor free mice: 1 mice
